One data set relates to French marigold. The note with it: Choi et al. (1996); cited from earlier work.
Another data set has as its system seed geranium. The note with it: Lee et al. (1996), in combination with nitrogen, phosphorus, and potassium; cited from earlier work.
The test system of a further data set is humans. The note with it: 2005 carcinogen assessment guidelines; cited from earlier work.
The test system of data set [1] is selected grasses and forbs. The following applies: greenhouse trials, Munshower and others (2006); cited from earlier work.
Another data set concerns weedy turf. Kind of data set: Weedy turf test plots: Vegetation Ranking Index. Format: in vivo. The following applies: healthy perennial grass cover x 3.5 minus 2.5 x stressed/unhealthy grass minus weed cover. An excerpt:
(§1) Table 4 lists the tested plots with various treatment using granular and/or liquid boron formulations alone, or in combination with another micronutrient Cu and/or macronutrients including N, P, K. FIG. 3 and FIGS. 5A-5E represent phytotoxicity effect on weed control by investigating coverage after the desired treatments from the test plots listed in Table 4. Also, FIGS. 9A-9D to FIGS. 25A-25D present actual vegetation conditions of each plot after the desired treatment described in Table 4.

Another data set has as its system Perennial Grass. Kind of data set: Weedy turf test plots: perennial grass cover and turf stress after treatment. Format: in vivo. The note with it: for Perennial Grass 8 months: cover in weedy turf plots of Table 4, 8 months, B and N rates per treatment; for Perennial Grass 10 months: cover in weedy turf plots of Table 4, 10 months; for Perennial Grass 12 months: cover in weedy turf plots of Table 4, 12 months; for 8-12 month average grass cover: weedy turf plots of Table 4.
Source text: (§2) Then, multiple plots were installed in weedy turf for liquid boron fertilizer application. The plots listed in Table 4 were used for varying application rates of B1300 where the amount of liquid applied to each plot varied. The sprayer was weighed before and after each application and the application rate determined by calculation knowing the concentration of B1300 liquid applied. The results of foliar liquid applied in controlling invasive species is reported in FIG. 3 and compared to an untreated control. As presented in FIG. 3, the plots were monitored 1 month, 8 months and 10 months after four different application rates of liquid B1300 (47 pounds B/acre, 62 pounds B/acre, 75 pounds B/acre, and 93 pounds B/acre), which show the effectiveness of each rate in limiting the growth of invasive plant species. The weedy plants controlled included dandelion (Taraxacum officiniale), oxeye daisy (Chrysanthemum leucanthemum), black medic (Medicago lupulina), Canadian thistle (Circium arvense), and white clover (Trifolium repens). The desirable perennial grasses that were unharmed or stimulated included Kentucky bluegrass (Poa pratensis) and smooth brome (Bromus inermis). The effectiveness of relevant commercial products targeting control of invasive plant species are shown in FIG. 5C and include glyphosate, Natria FeHEDTA and 2-4 D.
as §1
In this example the fertilizer was applied to weedy turf grass in September with approximately 50% invasive plant cover and then monitored again one, eight and ten months after initial application. At this North American field site snow covered the ground from approximately December through March. The weedy plants controlled included dandelion (Taraxacum officiniale), oxeye daisy (Chrysanthemum leucanthemum), black medic (Medicago lupulina), Canadian thistle (Circium arvense), and white clover (Trifolium repens). The desirable perennial grasses that were unharmed or stimulated included Kentucky bluegrass (Poa pratensis) and smooth brome (Bromus inermis).

The next data set concerns Forbs (Weeds). Kind of data set: Weedy turf test plots: forb (weed) cover and weed control after treatment. Format: in vivo. The note with it: for control of invasive weeds, in words: Fall-treated turf plots of Table 4, 10-month study period, rate as in the label; for Forbs (Weeds) 8 months: cover in weedy turf plots of Table 4, 8 months; for Forbs (Weeds) 10 months: cover in weedy turf plots of Table 4, 10 months; for Forbs (Weeds) 12 months: cover in weedy turf plots of Table 4, 12 months; for 8-12 month average weed cover: weedy turf plots of Table 4.
Source text: as §2, with “the plots were monitored 1 month, 8 months and 10 months after four different application” left out
as §1
[…] At this North American field site snow covered the ground from approximately December through March. The weedy plants controlled included dandelion (Taraxacum officiniale), oxeye daisy (Chrysanthemum leucanthemum), black medic (Medicago lupulina), Canadian thistle (Circium arvense), and white clover (Trifolium repens). The desirable perennial grasses that were unharmed or stimulated included Kentucky bluegrass (Poa pratensis) and smooth brome (Bromus inermis).

The next data set has as its system prostrate knotweed. Kind of data set: Foliar spray on prostrate knotweed, compared with Roundup. Format: in vivo, Polygonum aviculare. An excerpt:
In this example, liquid B1300 product was formulated by dissolving 1300 grams of 20.5% Boron (Solubor®) into 4 gallons of water for a foliar spray to target plants, either with or without ‘drizzle down’ of the liquid into the roots. Also, liquid B1440 product was formulated by dissolving 1440 grams of 20.5% Boron (Solubor®) into 4 gallons of water. Many invasive plants are controlled by B1300 foliar spray as presented in FIGS. 1A-1C or B1440 foliar spray as presented in FIGS. 2A-2C. Annual invasive plant species are easily controlled by phytotoxic nutrient addition since they have to grow from seed every year and have the least reliance on well—developed/extensive root systems and/or taproots that store plant resources. Annual invasive plants also have to grow from near the soil surface every year where it is easiest to add phytotoxic micronutrients and change the soil chemistry to inhibit or control the annual plant's growth. Perennial invasive plants grow every year from the previous years roots and take generally two forms: tap root species and extensive well-developed root systems. In general, it is difficult to control these invasive perennial plants compared to annual plants due to roots with plant resources deep in the soil. […]

The next data set relates to chlorophyllitic plants. The note with it: as little as; cited from earlier work.

`[Zn]` [Zn, zinc]: in the data set on French marigold, the “concentration inducing micro-nutrient toxicity” value is 5000 µM. Further, the “concentration of nutrient solution inducing toxicity symptoms” value in the data set with seed geranium is 500 µM.

Regarding `[Mn+2]` [Mn, manganese], the “concentration inducing micro-nutrient toxicity” value in the data set on French marigold is 2000 µM. In addition, in the data set with seed geranium, the “concentration of nutrient solution inducing toxicity symptoms” value is 1000 µM.

As to `[Mo]` [Mo, molybdenum], in the data set on French marigold, the “concentration inducing micro-nutrient toxicity” value is 1000 µM. Moreover, the “concentration of nutrient solution inducing toxicity symptoms” value with seed geranium is 250 µM.

Turning to `OB(O)O` [boric acid], the “U.S. EPA carcinogenicity classification” value in the data set with humans is on record as “not likely to be carcinogenic to humans”.

Regarding `[B]` [B, boron], the “concentration inducing micro-nutrient toxicity” value with French marigold was 500 µM. Moreover, the “concentration of nutrient solution inducing toxicity symptoms” value with seed geranium was 500 µM. For the same molecule, in data set [1], the “solution concentration at which plants performed adequately” value was “up to 40 mg B/L”.

`[Fe]` [Fe, iron]: in the data set on French marigold, the “concentration inducing micro-nutrient toxicity” value was 4000 µM. The “concentration of nutrient solution inducing toxicity symptoms” value with seed geranium was 500 µM.

As for `O=C(O)CNCP(=O)(O)O` [Glyphosate (S), glyphosate], the “Vegetation Ranking Index” value with weedy turf is on record as −133. Further, the “stress on perennial turf grasses, in words” value in the data set with Perennial Grass (Fall-treated turf plots of Table 4, 10-month study period, rate as in the label) is reported as “has no perennial grasses”. Moreover, in the data set on Perennial Grass, the “Perennial Grass 8 months” value came out at 0%, the “Perennial Grass 10 months” value came to 0%, the “Perennial Grass 12 months” value is 0% and the “8-12 month average grass cover” value is recorded as 0%. Also, in the data set with Forbs (Weeds), the “control of invasive weeds, in words” value is recorded as “dominated by weeds by mid-summer”; the “Forbs (Weeds) 8 months” value was 10%; the “Forbs (Weeds) 10 months” value is listed as 95%; the “Forbs (Weeds) 12 months” value stood at 90%. The “8-12 month average weed cover” value in the data set on Forbs (Weeds) stood at 65%. Moreover, the “effectiveness in treated turf plots” value in the data set with Forbs (Weeds) (about 30 days after treatment) is 100%. The weed cover with Forbs (Weeds) (next year after treatment, pre-treatment ~50% weed cover) is listed as approximately 75%. Moreover, in the data set with prostrate knotweed (along a gravel trail, FIG. 26D), the “effectiveness on prostrate knotweed, in words” value is “highly effective”. In addition, the “effectiveness in rain affected test” value in the data set on prostrate knotweed (plots put out 3 hours before a heavy rain (~1.0")) is listed as “highly effective”. In addition, the “application rate effective at causing photosynthetic disruption” value in the data set on chlorophyllitic plants is 0.75 pounds active ingredient per acre.

For `O=C(O)COc1ccc(Cl)cc1Cl` [2-4D (S), 2,4-Dichlorophenoxyacetic acid], in the data set on weedy turf, the “Vegetation Ranking Index” value stood at 13. In addition, in the data set with Perennial Grass, the “Perennial Grass 8 months” value is 90%, the “Perennial Grass 10 months” value was 85%, the “Perennial Grass 12 months” value amounted to 78% and the “8-12 month average grass cover” value came out at 84%. Also, in the data set on Forbs (Weeds), the “control of invasive weeds, in words” value is given as “short-term treatment effect”; the “Forbs (Weeds) 8 months” value came out at 5%; the “Forbs (Weeds) 10 months” value came out at 15%; the “Forbs (Weeds) 12 months” value is on record as 22%. In addition, the “8-12 month average weed cover” value with Forbs (Weeds) was determined as 14%.

For the molecule `[Cu]` [Cu, copper], in the data set on French marigold, the “concentration inducing micro-nutrient toxicity” value is 4000 µM. For the same molecule, the “concentration of nutrient solution inducing toxicity symptoms” value in the data set on seed geranium is 500 µM.

The record behind these values is US20200187504A1, “ENVIRONMENTALLY FRIENDLY COMPOSITIONS FOR FOLIAR AND GRANULAR CONTROL OF WEEDS” (priority 2018, published 2020).
